ChEMBL document CHEMBL6121052, “Design of ROS-Triggered Sesquiterpene Lactone SC Prodrugs as TrxR1 Covalent Inhibitors for the Treatment of Non-Small Cell Lung Cancer” (J Med Chem, 2025)
Activity calls are given as the source filed them. The rule behind the calls is not given here.

Key:
[1] = tested on: A549; test: Cytotoxicity against human A549 cells assessed as cell viability incubated for 48 hrs by MTT assay; format: functional, cell-based; settings: A549, 48 h
[2] = tested on: NCI-H1299; test: Cytotoxicity against human NCI-H1299 cells assessed as cell viability incubated for 48 hrs by MTT assay; format: functional, cell-based; settings: NCI-H1299, 48 h
[3] = tested on: NCI-H460; test: Cytotoxicity against human NCI-H460 cells assessed as cell viability incubated for 48 hrs by MTT assay; format: functional, cell-based; settings: NCI-H460, 48 h
[4] = tested on: A549; test: Induction of ROS generation in human A549 cells by DCFH-DA probe based flow cytometry analysis; format: functional, cell-based
[5] = tested on: NCI-H460; test: Induction of ROS generation in human NCI-H460 cells by DCFH-DA probe based flow cytometry analysis; format: functional, cell-based
[6] = Cytotoxicity against human BEAS-2B cells assessed as cell viability incubated for 48 hrs by MTT assay; format: toxicity, cell-based
[7] = target: T1, Thioredoxin reductase 1, cytoplasmic (Homo sapiens, UniProt Q16881); test: Binding affinity to TrxR1 (unknown origin) assessed as dissociation constant by SPR analysis
T1 sequence (Q16881 whole entry): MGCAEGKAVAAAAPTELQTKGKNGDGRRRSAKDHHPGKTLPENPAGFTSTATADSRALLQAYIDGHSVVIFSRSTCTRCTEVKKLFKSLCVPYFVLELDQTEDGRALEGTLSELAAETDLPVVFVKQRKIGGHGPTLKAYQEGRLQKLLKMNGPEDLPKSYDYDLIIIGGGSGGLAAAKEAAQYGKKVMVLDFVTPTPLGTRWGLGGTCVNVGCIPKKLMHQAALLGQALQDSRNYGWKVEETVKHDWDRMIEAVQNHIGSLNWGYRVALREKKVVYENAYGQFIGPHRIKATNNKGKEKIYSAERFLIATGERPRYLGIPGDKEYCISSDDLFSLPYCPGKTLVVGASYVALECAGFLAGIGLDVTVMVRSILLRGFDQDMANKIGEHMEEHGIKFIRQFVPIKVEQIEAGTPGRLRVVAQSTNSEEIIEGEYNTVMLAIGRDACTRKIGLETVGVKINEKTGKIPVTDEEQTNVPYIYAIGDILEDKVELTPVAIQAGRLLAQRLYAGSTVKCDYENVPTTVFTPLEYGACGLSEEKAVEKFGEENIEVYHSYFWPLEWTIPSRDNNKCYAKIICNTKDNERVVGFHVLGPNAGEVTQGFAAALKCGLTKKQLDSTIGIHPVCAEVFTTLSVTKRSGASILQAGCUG

[8] = target: T2, Thioredoxin reductase 1, cytoplasmic (Homo sapiens) (UniProt Q16881); test: Binding affinity to TrxR1 in human A549 cells assessed as thermal stabilization by measuring reduction in thermal denaturation at 200 uM incubated for 90 mins by CETSA analysis; format: cell-based
T2 sequence (whole entry): T1 sequence (Q16881 whole entry)

[9] = target: T2, Thioredoxin reductase 1, cytoplasmic (Homo sapiens); test: Inhibition of TrxR1 (unknown origin) using DTNB as substrate preincubated for 1.5 hrs by microplate reader analysis
[10] = target: T2, Thioredoxin reductase 1, cytoplasmic (Homo sapiens); test: Binding affinity to TrxR1 (unknown origin) at Sec498 residue by pull-down analysis
[11] = target: T2, Thioredoxin reductase 1, cytoplasmic (Homo sapiens); test: Binding affinity to TrxR1 (unknown origin) at Cys475 residue

Compound: C/C1=C\[C@@H](OC(=O)NCc2ccc(F)cc2)[C@H]2[C@H](CC3=C[C@H](C1)OC3=O)OC(=O)[C@@H]2CSc1ccc(F)cc1
- IC50 [1]: 5.05 µM
- IC50 [2]: 5.37 µM

Compound: C/C1=C\[C@@H](OC(=O)C2CC2)[C@H]2[C@H](CC3=C[C@H](C1)OC3=O)OC(=O)[C@@H]2CSC(=S)N(C)C
- IC50 [3]: 7.75 µM
- IC50 [1]: 0.57 µM
- IC50 [2]: 2.18 µM

Compound: C/C1=C\[C@@H](OC(=O)OC2CC2)[C@H]2[C@H](CC3=C[C@H](C1)OC3=O)OC(=O)[C@@H]2CSc1ccc(F)cc1
- IC50 [1]: 3.91 µM
- IC50 [2]: 3.04 µM

Compound: CCCCCSC(=O)O[C@@H]1/C=C(\C)C[C@H]2C=C(C[C@@H]3OC(=O)[C@H](CSC(=S)N(C)C)[C@H]31)C(=O)O2
- IC50 [1]: 1.06 µM
- IC50 [2]: 2.64 µM

Compound: C/C1=C\[C@@H](OC(=O)C2CC2)[C@H]2[C@H](CC3=C[C@H](C1)OC3=O)OC(=O)[C@@H]2CSc1ccc(F)cc1
- IC50 [3]: > 25 µM
- IC50 [1]: 4.41 µM
- Activity [4]: Active
- Activity [5]: Active
- IC50 at 48 h [6]: > 25 µM

Compound: C/C1=C\[C@@H](OC(=O)C2CC2)[C@H]2[C@H](CC3=C[C@H](C1)OC3=O)OC(=O)[C@@H]2CSc1ccc(Br)cc1
- IC50 [3]: > 25 µM
- IC50 [1]: 4.6 µM
- IC50 at 48 h [6]: > 25 µM

Compound: C/C1=C\[C@@H](OC(=O)C2CC2)[C@H]2[C@H](CC3=C[C@H](C1)OC3=O)OC(=O)[C@@H]2CSc1ccc(C(F)(F)F)cc1
- IC50 [3]: > 25 µM
- IC50 [1]: 3.86 µM
- IC50 at 48 h [6]: > 25 µM

Compound: C/C1=C\[C@@H](OC(=O)OCc2cccnc2)[C@H]2[C@H](CC3=C[C@H](C1)OC3=O)OC(=O)[C@@H]2CSc1ccc(F)cc1
- IC50 [1]: 1.56 µM
- IC50 [2]: 11.5 µM

Compound: C=C1C(=O)O[C@H]2CC3=C[C@H](C/C(C)=C/[C@@H](OC(=O)NCCC)[C@H]12)OC3=O
- Kd [7]: 7.89 µM
- Activity [8]: Active
- inhibition [9]: Active
- Activity [10]: Active
- Activity [11]: Active

Compound: C/C1=C\[C@@H](OC(=O)SCC(C)C)[C@H]2[C@H](CC3=C[C@H](C1)OC3=O)OC(=O)[C@@H]2CSc1ccc(F)cc1
- IC50 [1]: 2.57 µM
- IC50 [2]: 5.37 µM

Compound: C/C1=C\[C@@H](OC(=O)OCc2ccc(F)cc2)[C@H]2[C@H](CC3=C[C@H](C1)OC3=O)OC(=O)[C@@H]2CSC(=S)N(C)C
- IC50 [1]: 0.47 µM
- IC50 [2]: 2.93 µM

Compound: C=C1C(=O)O[C@H]2CC3=C[C@H](C/C(C)=C/[C@@H](O)[C@H]12)OC3=O
- Kd [7]: 42.7 µM
